Three compounds from US20100179058A1, “Azolylmethyloxiranes, Their Use for Controlling Phytopathogenic Fungi, and Compositions Comprising Them” (BASF SE, priority 2006, published 2010) can be followed below.

Assay [1] relates to Alternaria solani. Nature of the assay: Activity against early blight of tomato caused by Alternaria solani (Alteso P1), greenhouse. To be noted: tomato plants, comparative experiment, untreated 90. The format is in vivo. The protocol:
The active compounds were prepared separately or jointly as a stock solution comprising 25 mg of active compound which was made up to 10 ml using a mixture of acetone and/or DMSO and the emulsifier Wettol EM 31 (wetting agent having emulsifying and dispersing action based on ethoxylated alkylphenol) in a volume ratio of solvent/emulsifier of 99:1. The mixture was then made up to 100 ml with water. This stock solution was diluted with the solvent/emulsifier/water mixture described to give the concentration of active compound stated below. Leaves of potted tomato plants were sprayed to runoff point with an aqueous suspension having the active compound concentration stated below. The next day, the leaves were inoculated with an aqueous spore suspension of Alternaria solani in a 2% strength biomalt solution. The plants were then placed in a water vapor-saturated chamber at temperatures between 20 and 22° C. After 5 days, the disease on the untreated but infected control plants had developed to such an extent that the infection could be determined visually in %. […]

The next assay relates to Botrytis cinerea. Nature of the assay: Activity against gray mold on bell pepper leaves caused by Botrytis cinerea, 1 day protective application (Botrci P1), greenhouse. Type of assay: in vivo. The following applies: bell pepper seedlings, comparative experiment, untreated 100. The protocol: The active compounds were prepared separately or jointly as a stock solution comprising 25 mg of active compound which was made up to 10 ml using a mixture of acetone and/or DMSO and the emulsifier Wettol EM 31 (wetting agent having emulsifying and dispersing action based on ethoxylated alkylphenol) in a volume ratio of solvent/emulsifier of 99:1. The mixture was then made up to 100 ml with water. This stock solution was diluted with the solvent/emulsifier/water mixture described to give the concentration of active compound stated below. Bell pepper seedlings were, after 2-3 leaves were well developed, sprayed to runoff point with an aqueous suspension having the active compound concentration stated below. The next day, the treated plants were inoculated with a spore suspension of Botrytis cinerea in a 2% strength biomalt solution. The test plants were then placed in a dark climatized chamber at 22 to 24° C., and high atmospheric humidity. After 5 days, the extent of the fungal infection on the leaves could be determined visually in %.

A further assay concerns Septoria tritici. Nature of the assay: Activity against the Septoria leaf blotch pathogen Septoria tritici in the microtiter test (Septtr). The format is cell-based. To be noted: 125 ppm active compound, microtiter plate, 405 nm, day 7 after inoculation. The protocol: (§1) The active compounds were formulated separately as a stock solution having a concentration of 1 ppm in DMSO. The stock solution is pipetted onto a microtiter plate (MTP) and diluted to the stated active compound concentration using a malt-based aqueous nutrient medium for fungi. An aqueous spore suspension of Septoria tritici was then added. The plates were placed in a water vapor-saturated chamber at temperatures of 18° C. Using an absorbtion photometer, the MTPs were measured at 405 nm on day 7 after the inoculation. The measured parameters were compared to the growth of the active compound-free control variant and the fungus- and active compound-free blank value to determine the relative growth in % of the pathogens in the individual active compounds.

The test system of assay [2] is Alternaria solani. Kind of assay: Activity against Alternaria solani early blight pathogen in the microtiter test (Alteso). The format is cell-based. The following applies: 125 ppm active compound, microtiter plate, 405 nm, day 7 after inoculation. The protocol:
as §1, with “Alternaria solani” for “Septoria tritici”

As to `Fc1ccc(C2(Cn3cncn3)OC2c2ccccc2Cl)c(F)c1` (racemic) [8.12], the “Infection in % at 63 ppm for Alteso P1” value in the assay on Alternaria solani [1] worked out at 10%. Further, the “Infection in % at 63 ppm for Botrci P1” value in the assay on Botrytis cinerea was 30%.

`Cc1cccc(C2OC2(Cn2cncn2)c2ccc(F)cc2F)c1` (stereo not drawn) [8.8]: the “growth (relative growth in % of the pathogens)” value in the assay on Septoria tritici and in the assay with Alternaria solani [2] was 0% throughout.

As to `Fc1ccccc1C1(Cn2cncn2)OC1c1ccccc1Cl` (stereo not drawn) [Comp. No. 6 of EP-A 0196038, reference compound], the “Infection in % at 63 ppm for Alteso P1” value in the assay on Alternaria solani [1] worked out at 90%. For the same compound, the “Infection in % at 63 ppm for Botrci P1” value with Botrytis cinerea was 100%.
